Experimental data: PubChem BioAssay (NCI)
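In this assay, cells in 96-well plates receive the compound at five concentrations for 48 hours. Endpoints are linearly interpolated between the surrounding concentrations. TGI denotes the concentration required for complete inhibition of growth.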 *1 amine or outer side, *2 acyl side, *3 side chain or, on linkers, in order; H or OH if unused. Where a SMILES comes first, the peptide text is derived from it. Bridges are numbered along the chain shown (N, C = ends). [ ]: non-standard residue; d: D form. The star is where a group is joined. X34 = O=C(C(CCCCNO[*:3])N[*:1])[*:2]; Fmoc = O=C(OCC1c2ccccc2-c2ccccc21)*

Assays:
Assay in all cases: NCI-60 cell line screen, 48 h
CCRF-CEM leukemia = test system: CCRF-CEM leukemia
UACC-62 melanoma = test system: UACC-62 melanoma
NCI-H460 lung = test system: NCI-H460 lung
NCI-H226 lung = test system: NCI-H226 lung
DU-145 prostate = test system: DU-145 prostate
786-0 renal = test system: 786-0 renal
A498 renal = test system: A498 renal
COLO 205 colon = test system: COLO 205 colon
SNB-19 CNS = test system: SNB-19 CNS
NCI-H23 lung = test system: NCI-H23 lung
NCI-H522 lung = test system: NCI-H522 lung
SF-295 CNS = test system: SF-295 CNS
MALME-3M melanoma = test system: MALME-3M melanoma
TK-10 renal = test system: TK-10 renal
UO-31 renal = test system: UO-31 renal
OVCAR-5 ovarian = test system: OVCAR-5 ovarian
HS 578T breast = test system: HS 578T breast
HOP-92 NSCLC = test system: HOP-92 NSCLC

Row | SMILES | TGI (CCRF-CEM leukemia) | TGI (UACC-62 melanoma) | TGI (NCI-H460 lung) | TGI (NCI-H226 lung) | TGI (DU-145 prostate) | TGI (786-0 renal) | TGI (A498 renal) | TGI (COLO 205 colon) | TGI (SNB-19 CNS) | TGI (NCI-H23 lung) | TGI (NCI-H522 lung) | TGI (SF-295 CNS) | TGI (MALME-3M melanoma) | TGI (TK-10 renal) | TGI (UO-31 renal) | TGI (OVCAR-5 ovarian) | TGI (HS 578T breast) | TGI (HOP-92 NSCLC)
1 | CN(C)CCNC(=O)Cn1cnc2cccc([N+](=O)[O-])c2c1=O | > 100 µM | > 100 µM | > 100 µM | > 100 µM | > 100 µM | > 100 µM | > 100 µM | > 100 µM | > 100 µM | > 100 µM | > 100 µM | > 100 µM | > 100 µM | > 100 µM | > 100 µM | > 100 µM | > 100 µM | 
2 | O=C(O)CCC(N=NNc1ccc(-c2nc3ccccc3[nH]2)cc1)C(=O)O (configuration not stated) | > 100 µM |  | > 100 µM | > 100 µM | > 100 µM | > 100 µM | > 100 µM | > 100 µM | > 100 µM | > 100 µM | > 100 µM | 73.2 µM |  | > 100 µM | > 100 µM | > 100 µM | > 100 µM | > 100 µM
3 | COC(=O)C1Cc2ccc3c(c2C1=O)CCCC3 (configuration not stated) | > 100 µM | > 100 µM | > 100 µM | > 100 µM | > 100 µM | > 100 µM | > 100 µM | > 100 µM | > 100 µM | > 100 µM | > 100 µM | > 100 µM | > 100 µM | > 100 µM | > 100 µM | > 100 µM | > 100 µM | 
4 | N#CC(C#N)N=Nc1ccc(-c2nc3ccccc3o2)cc1 |  | 26.1 µM | 30.4 µM |  | 31.5 µM | 30.8 µM | 31.2 µM | 23.9 µM | 60 µM | 29.9 µM | 73.7 µM |  | > 100 µM | 38.2 µM | 26 µM | 36.1 µM | > 100 µM | > 100 µM
5 | COc1cc2c(cc1OC)CC1c3cc(OC)c(OC)cc3CCN1CC2 (configuration not stated) | > 100 µM | > 100 µM | > 100 µM | > 100 µM | > 100 µM | > 100 µM | > 100 µM | > 100 µM | 76.2 µM | 68 µM | > 100 µM | > 100 µM |  | > 100 µM | > 100 µM | > 100 µM | > 100 µM | > 100 µM
6 | O=C1c2ccccc2C2C1C(c1ccccc1)C1(Cc3ccccc3C1=O)C2c1ccccc1 (configuration not stated) | > 100 µM | > 100 µM | > 100 µM | > 100 µM | > 100 µM | > 100 µM |  | > 100 µM | > 100 µM | > 100 µM | > 100 µM | > 100 µM | > 100 µM | > 100 µM | > 100 µM | > 100 µM | > 100 µM | > 100 µM
7 | CCOC(=O)c1c(C)n([O-])c2cc(Cl)c(Cl)cc2[n+]1=O | 45.9 µM | 32.5 µM | 40.7 µM | 33.5 µM | 30.8 µM | 84.5 µM | 58 µM | 39 µM | > 100 µM | 26.6 µM |  | > 100 µM |  | 54.8 µM | 67.1 µM | > 100 µM | 58.3 µM | 33.2 µM
8 | CCCCCCCCCCCCCCCCOP(=O)(O)OCC(NC(C)=O)C(=O)O (configuration not stated) |  |  | > 100 µM | > 100 µM | > 100 µM | > 100 µM | > 100 µM | > 100 µM | 35.6 µM | > 100 µM | > 100 µM | 47.4 µM | > 100 µM | 62.6 µM | > 100 µM | > 100 µM | > 100 µM | > 100 µM
9 | CCOc1ccccc1-c1nc2c(s1)C(=O)c1ccccc1C2=O |  | 13.8 µM | 39.2 µM |  | 36.5 µM | 30.5 µM | 29.4 µM | 58.9 µM | 65.3 µM | 31 µM | 97.7 µM | 25.1 µM | 19.8 µM | 34.4 µM | 25.4 µM | 40.1 µM | 62.3 µM | 25 µM
10 | O=c1c(-c2ccccc2F)coc2cc(F)ccc12 | > 100 µM | > 100 µM | > 100 µM | > 100 µM | > 100 µM | > 100 µM | > 100 µM | > 100 µM | > 100 µM | > 100 µM | > 100 µM | > 100 µM |  | > 100 µM | > 100 µM | > 100 µM | > 100 µM | > 100 µM
11 | Oc1cc(N2CCCC2)ccc1/C=N/N1C(=S)N(c2ccccc2)C(=Nc2ccccc2)C1=Nc1ccccc1 |  | > 100 µM | > 100 µM | > 100 µM | > 100 µM | > 100 µM |  | > 100 µM | > 100 µM | > 100 µM | > 100 µM | > 100 µM | > 100 µM | > 100 µM | > 100 µM | > 100 µM | > 100 µM | > 100 µM
12 | CC(=O)OCC(C)(COC(C)=O)N1C(=O)C2C3c4ccccc4C(c4ccccc43)C2C1=O (configuration not stated) | > 100 µM | > 100 µM | > 100 µM | > 100 µM | > 100 µM | > 100 µM | > 100 µM | > 100 µM | > 100 µM | > 100 µM |  | > 100 µM |  | > 100 µM | > 100 µM | > 100 µM | > 100 µM | > 100 µM
13 | N=CN=CC(=S)O[C@@H]1C(=O)N2CCC[C@@]23CCCC[C@@H]13 | > 12.5 µM | > 12.5 µM | > 12.5 µM | > 12.5 µM | > 12.5 µM | > 12.5 µM | > 12.5 µM | > 12.5 µM | > 12.5 µM | > 12.5 µM | > 12.5 µM | > 12.5 µM | > 12.5 µM | > 12.5 µM | > 12.5 µM | > 12.5 µM | > 12.5 µM | 
14 | O=C(N/N=C/c1ccc([N+](=O)[O-])cc1)Nc1ccc(Br)cc1 | 84.5 µM | > 100 µM | > 100 µM | > 100 µM | > 100 µM | > 100 µM |  | > 100 µM | > 100 µM | > 100 µM | > 100 µM | > 100 µM | > 100 µM | > 100 µM | > 100 µM | > 100 µM | > 100 µM | > 100 µM
15 | Oc1c(Br)cc(/C=C/c2cccc(/C=C/c3cc(Br)c(O)c(Br)c3)n2)cc1Br |  | 41.8 µM | 11.3 µM |  | 14.1 µM | 28 µM | 25 µM | 32.1 µM | 29.4 µM |  |  | 47.4 µM |  | 56.3 µM | 28.4 µM | 32.3 µM | 66.9 µM | 29.6 µM
16 | CCOC(=O)c1c(C)n(C)c2c1cc(O)c1[nH]c3c(c12)CCCC3 | 43.6 µM | 35.8 µM | 42.9 µM |  | > 100 µM | 42.3 µM |  | 23.5 µM | > 100 µM | 52.7 µM | 28.7 µM | > 100 µM | 31.7 µM | 60.9 µM | 69.9 µM | 65.1 µM | 87.4 µM | 16.8 µM
17 | CC(=O)OC[C@@]12Cc3ccc(C)c(O)c3[C@]1(C)[C@@H](OC(C)=O)[C@]1(O)[C@H]([C@@H](OC(=O)c3ccccc3)[C@@H](C)[C@H]1OC(C)=O)[C@H]2OC(C)=O | > 50 µM | > 50 µM | > 50 µM | > 50 µM | > 50 µM | > 50 µM | > 50 µM | > 50 µM | > 50 µM | > 50 µM | > 50 µM | > 50 µM |  | > 50 µM | > 50 µM | > 50 µM | > 50 µM | > 50 µM
18 | O=C1OC(C2(O)OC(=O)c3ccccc32)c2ccccc21 (configuration not stated) |  | > 100 µM | > 100 µM | > 100 µM | > 100 µM | > 100 µM | > 100 µM | > 100 µM | > 100 µM | > 100 µM | > 100 µM | > 100 µM |  | > 100 µM | > 100 µM | > 100 µM | > 100 µM | > 100 µM
19 | COc1ccc(N=NC(=Nc2ccc(Cl)cc2)c2ccc(N(CCC#N)CCC#N)cc2)cc1 |  | 54.1 µM | > 100 µM | > 100 µM | > 100 µM | > 100 µM | > 100 µM | > 100 µM | > 100 µM | > 100 µM | 45.3 µM | > 100 µM |  | > 100 µM | > 100 µM | > 100 µM | > 100 µM | 93 µM
20 | CC(NC(=O)c1ccc(NP(=O)(OCc2ccc([N+](=O)[O-])o2)N(C)CCCCCl)cc1)c1ccc(OCC2CCCCC2)c(C(N)=O)c1 (configuration not stated) | 16.5 µM | 26.4 µM | 72.3 µM | 45.1 µM | > 100 µM | 45.9 µM | 49.2 µM | 22.8 µM | 90.8 µM | 34.8 µM | 34.2 µM | 36.4 µM |  | 80.7 µM | > 100 µM | 73.7 µM | 42.9 µM | 20.6 µM
21 | NC(=O)CNC(=O)C1CCCN1C(=O)C1CCCCNOC(=O)CCC(NC(=O)OCC2c3ccccc3-c3ccccc32)C(=O)NC(Cc2c[nH]c3ccccc23)C(=O)N1 (configuration not stated) (Fmoc-EW[X34]PG-NH2; ester 1-3; configuration not given here) | > 100 µM | > 100 µM | > 100 µM | > 100 µM | > 100 µM | > 100 µM |  | > 100 µM | > 100 µM | > 100 µM | > 100 µM | > 100 µM | > 100 µM | > 100 µM | > 100 µM | > 100 µM | > 100 µM | > 100 µM
